# Results from patent US20120165403A1, “METHODS OF INHIBITING THE ACTIVITY OF HSP90 AND/OR ARYL HYDROCARBON RECEPTOR” (UNIVERSITY OF ROCHESTER, priority 2004, published 2012).
# Key:
# [1] = tested on: hsp90; assay: Affinity chromatography on EGCG-conjugated Sepharose, Hepa cytosol hsp90; type: binding, mouse
# [2] = target: T1, chicken hsp90 (Gallus gallus, UniProt P11501); assay: Trypsin treatment of in vitro translated hsp90; type: biochemical; design: made in house; host or cells: TNT rabbit reticulocyte lysate, 35S-labelled; details: in absence of AhR or ARNT, trypsin 10 minutes at room temperature
# Protocol: Chicken hsp90 was translated in vitro using the TNT RRL system as described supra in the presence of [^35S]Methionine, diluted, incubated with DMSO or EGCG, and treated with trypsin at indicated concentrations for 10 minutes at room temperature. All samples were separated by 10% SDS-PAGE, transferred to PVDF membrane, and visualized by phosphorImager. Results of the experiment are illustrated in FIG. 13. […] Therefore, the ability of EGCG to affect hsp90 conformation is not dependent on the presence of AhR or ARNT.
# [3] = target: T1, chicken hsp90; assay: Affinity chromatography on EGCG-conjugated Sepharose, hsp90 point and truncation mutants; type: binding; design: made in house; host or cells: coupled transcription/translation in rabbit reticulocyte lysate (TNT, Promega), 35S-labelled; details: smallest truncation mutant N538, amino acids 538-728
# Text: Murine AhR and ARNT cDNA (obtained from J. Whitlock and O. Hankinson, respectively) were inserted into pcDNA3 (Invitrogen, Carlsbad, Calif.). Chicken hsp90 constructs (FIG. 5), c90711hsp (wild-type), c90G94D (wild-type point mutant gly94→Asp (Grenert et al., J. Biol. Chem. 272:23843-23850 (1997), which is hereby incorporated by reference in its entirety), c90D92A (wild-type point mutant Asp92→Ala (Sullivan et al., J. Biol. Chem. 268:20373-20379 (1993), which is hereby incorporated by reference in its entirety), c90N221 (wild-type truncation mutant encoding a.a. 221-728 (Sullivan et al., J. Biol. Chem. 268:20373-20379 (1993), which is hereby incorporated by reference in its entirety)), c90N303 (a.a. 303-728) and c90N538 (a.a. 538-728) were kind gifts from Dr. D. Toft (Rochester, Minn.). The C-terminal truncation mutant c900507 (a.a. 1-221) was obtained from Dr. L. Neckers (Rockville, Md.) (Grenert et al., J. Biol. Chem. 272:23843-23850 (1997); Marcu et al., J. Biol. Chem. 275:37181-37186 (2000), which are hereby incorporated by reference in their entirety). Human p23 cDNA was excised from pQE80-p23 (obtained from W. Chan Stockton, Calif.) by sequential digests using the restriction enzymes Sad (3′-end) and BamHI (5′-end) and inserted into the similarly digested pET28a (Novagen, Madison, Wis.). […]
compound,measurement,setting,value
"O=C(O[C@@H]1Cc2c(O)cc(O)cc2O[C@@H]1c1cc(O)c(O)c(O)c1)c1cc(O)c(O)c(O)c1 [EGCG, epigallocatechin gallate]",binding of hsp90 to EGCG-Sepharose,[1],also eluted from EGCG-Sepharose
same,effect on hsp90 conformation (trypsin treatment),[2],altered conformation of hsp90
same,location of the binding site on hsp90,[3],binding of EGCG occurs within this region of the protein
